Laboratory results: patent publication US9776972B2, “Pyrazole derivatives as arginine methyltransferase inhibitors and uses thereof” (priority 2013, dated 2017)
Like-named read-outs stand apart in the source and are kept apart here.

Assays:
[1] = test system: mono-methyl arginine in RKO cells; test: RKO Methylation Assay, In Cell Western (ICW) for mono-methyl arginine and DNA content; format: cell-based; details: Homo sapiens, RKO, 72 h
Procedure, shortened: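 After fixation, mono-methyl arginine and DNA (DRAQ5) were measured by infrared In-Cell Western imaging at 700/800 nm in RKO cells exposed to compounds for 72 hours. Percent activation used DMSO wells as minimum and 20 μM reference compound as maximum; EC30 curves fitted on triplicate wells.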

human PRMT8 = human PRMT8 (Homo sapiens, UniProt Q9NR22); test: PRMT8 Biochemical Assay (3H-SAM Flashplate, peptide substrate); details: single experiment or average of multiple experiments
Chain of human PRMT8 (Q9NR22 whole entry, the tested form may be a part): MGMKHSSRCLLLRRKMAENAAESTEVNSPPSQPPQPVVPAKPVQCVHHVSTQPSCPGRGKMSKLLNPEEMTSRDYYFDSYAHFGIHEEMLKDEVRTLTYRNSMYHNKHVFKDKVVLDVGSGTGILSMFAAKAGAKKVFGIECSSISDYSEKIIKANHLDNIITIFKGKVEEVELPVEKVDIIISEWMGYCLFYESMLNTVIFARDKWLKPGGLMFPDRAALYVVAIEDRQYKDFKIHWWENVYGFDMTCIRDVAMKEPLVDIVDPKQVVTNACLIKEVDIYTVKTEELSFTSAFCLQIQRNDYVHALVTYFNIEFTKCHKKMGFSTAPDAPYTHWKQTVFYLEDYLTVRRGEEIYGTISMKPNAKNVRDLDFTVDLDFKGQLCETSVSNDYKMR
Procedure, shortened: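 Methylation of a biotin-tagged histone H4 peptide (residues 31-45) by recombinant PRMT8 was measured as 3H transfer from 3H-SAM, after a 30 min room-temperature compound preincubation in Bicine buffer pH 7.6. Reactions were quenched with unlabelled SAM to 400 uM final, then bound counts were read by streptavidin Flashplate. IC50 came from a Hill fit of % inhibition relative to max and SAH min controls.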

[2] = RKO cells, 72 hours, mono-methyl arginine, percent activation, single experiment or average of multiple experiments, read-out: EC30 (In Cell Western data, Numerical)
[3] = read-out: EC30 (In Cell Western data, Numerical, μM)

SMILES	EC30 [1, 2] [µM]	IC50 (human PRMT8) [nM]	EC30 [1, 3] [µM]
CCN(CCN)Cc1c[nH]nc1-c1ccc(F)cc1 [Compound 62]	> 20	362	–
CCCN(CCN)Cc1c[nH]nc1-c1ccc(F)cc1 [Compound 63]	> 20	8030	–
CN(CCN)Cc1c[nH]nc1-c1ccc(C#N)cc1 [Compound 68]	0.775	404	–
CNCCN(C)Cc1cnn(CC(=O)OC)c1-c1ccc(OC(C)C)cc1 [Compound 249]	–	1500	9.53
CNCCN(C)Cc1cn(CC(=O)O)nc1-c1ccc(OC(C)C)cc1 [Compound 250]	–	2540	> 20
CNCCN(C)Cc1cn(C2CCCCC2)nc1-c1ccc(OC(C)C)cc1 [Compound 256]	> 20	2650	–
